{"source": "patent US5250546A", "about": "“Amino-alcohol derivatives and processes for their preparation” (Nippon Chemiphar Co., Ltd., priority 1984, dated 1993)", "key": {"[1]": {"test_system": "glutamic acid at neuromuscular junctions of crayfish (opener muscles of the first walking legs)", "assay": "Blocking effects against glutamic acid at neuromuscular junctions of crayfish (L-glutamic acid-induced depolarization)", "assay_type": "cell-based", "details": "5 min; suppression rate of depolarization by L-glutamic acid (10^-4 M); 5-minute pretreatment with test compound 2×10^-4 M", "description": "The opener muscles of the first walking legs of crayfish were used as experimental materials. The neuromuscular sample was held in a bath in which a physiological solution [composition (mM): NaCl (195), CaCl2 (18), KCl (5.4), tris-maleate buffer (pH 7.5; 10), glucose (11)] for use with the crayfish was perfused at room temperature and at a constant flow rate. A glass micro-electrode filled with a 3M-KCl solution was inserted in a central part of the muscle fiber to intracellularly record changes in the potential of the muscular cell membrane.\nThe blocking effect of each test compound against glutamic acid was evaluated in terms of the suppression rate to depolarization which was induced by bath-applying L-glutamic acid (10^-4 M) in a 5-minute pretreatment with a solution of the test compound (2×10^-4 M)."}, "[2]": {"assay": "Acute toxicity, up-and-down method", "details": "mouse, in vivo; iv (caudal vein), ddN male mice", "experimental": "Using ddN male mice, the acute toxicity level of each test compound was determined in accordance with an up-and-down method. Some of the test compounds used were dissolved in physiological saline and administered through the caudal vein."}, "[3]": {"test_system": "anemic decerebrate rigidity (Wistar male rats)", "assay": "Effects on anemic decerebrate rigidity (EMG of M. triceps brachii)", "assay_type": "in vivo", "details": "Rattus norvegicus, iv, 10 min, read-out: Suppression rate (rigidity, EMG pulse area)", "protocol": "An anemic decerebrate rigidity sample was prepared principally in accordance with the procedure of Fukuda et al. [Japan. […] Wistar male rats (body weight: 270 to 350 g) were held on their backs and incised at their cervices under etherization. After the trachea and common carotid arteries were exposed, the trachea was cannulated and the bilateral common carotid arteries and esophagus were then double-ligated and cut. Thereafter, its occipital bone was exposed through which a circular hole was bored to double-ligate the centrally extending basilar artery. As each rat started coming out of anesthetization, its front limbs became rigid. Measurement was conducted by recording electromyographic (EMG) response from the muscle of the forelimb (M. triceps brachii) of the rat in the rigid state. The EMG pulses were converted to accumulated values every 10 seconds and recorded as a histogram on a recorder.\nThe effect of each test compound on the rigidity was evaluated in terms of the suppression rate. This rate was calculated first by determining the area of a decreased EMG pulse part on the histogram upon passage of 10 minutes after administration of a physiological saline solution of each test compound (3 mg/kg) through the femoral vein and then in accordance with the following equation.\nA: EMG pulse area when no test compound was administered (control)."}}, "note": "Where a name gives a salt, the structure may show the parent alone. Read-outs that look alike come from different tables or passages of the source."}
{"compound": "COc1ccc([C@@H](O)[C@H](CC(C)C)NCCCN2CCCCC2)cc1", "note": "(racemic) [Compound 53, (1RS,2SR)-1-(4-methoxyphenyl)-4-methyl-2-(3-piperidinopropylamino)pentan-1-ol dihydrochloride]", "values": [{"measurement": "inhibition at 200 µM", "setting": "[1]", "value": 91, "unit": "%"}]}
{"compound": "CC(C)C[C@@H](NCCCN1CCCCC1)[C@H](O)c1ccccc1.Cl.Cl", "note": "(racemic) [Compound 16, (1RS,2RS)-4-methyl-1-phenyl-2-(3-piperidinopropylamino)pentan-1-ol dihydrochloride]", "values": [{"measurement": "inhibition at 200 µM", "setting": "[1]", "value": 95, "unit": "%"}, {"measurement": "LD50", "setting": "[2]", "value": 28.8, "unit": "mg/kg"}]}
{"compound": "CC(C)C[C@H](NCCCN1CCCCC1)[C@H](O)c1ccccc1.Cl.Cl", "note": "(racemic) [Compound 15, (1RS,2SR)-4-methyl-1-phenyl-2-(3-piperidinopropylamino)pentan-1-ol dihydrochloride]", "values": [{"measurement": "inhibition at 200 µM", "setting": "[1]", "value": 100, "unit": "%"}, {"measurement": "LD50", "setting": "[2]", "value": 23.6, "unit": "mg/kg"}]}
{"compound": "CCCCCC[C@H](NCCCN1CCCCC1)[C@H](O)c1ccccc1", "note": "(racemic) [Compound 7, (1RS,2SR)-1-phenyl-2-(3-piperidinopropylamino)octan-1-ol dihydrochloride]", "values": [{"measurement": "inhibition at 200 µM", "setting": "[1]", "value": 98, "unit": "%"}]}
{"compound": "CC(C)C[C@H](NCCCN1CCOCC1)[C@H](O)c1ccccc1", "note": "(racemic) [Compound 25, (1RS,2SR)-4-methyl-2-(3-morpholinopropylamino)-1-phenylpentan-1-ol dihydrochloride]", "values": [{"measurement": "inhibition at 200 µM", "setting": "[1]", "value": 90, "unit": "%"}]}
{"compound": "CC(C)C[C@H](NCCCN1CCCC1)[C@H](O)c1ccccc1", "note": "(racemic) [Compound 23, (1RS,2SR)-4-methyl-1-phenyl-2-(3-pyrrolidinopropylamino)pentan-1-ol dihydrochloride]", "values": [{"measurement": "inhibition at 200 µM", "setting": "[1]", "value": 97, "unit": "%"}]}
{"compound": "CCCCCCCC[C@H](NCCCN1CCCCC1)[C@H](O)c1ccccc1", "note": "(racemic) [Compound 11, (1RS,2SR)-1-phenyl-2-(3-piperidinopropylamino)decan-1-ol dihydrochloride]", "values": [{"measurement": "inhibition at 200 µM", "setting": "[1]", "value": 100, "unit": "%"}]}
{"compound": "Cc1cccc([C@@H](O)[C@H](CC(C)C)NCCCN2CCCCC2)c1", "note": "(racemic) [Compound 49, (1RS,2SR)-4-methyl-1-(3-methylphenyl)-2-(3-piperidinopropylamino)pentan-1-ol dihydrochloride]", "values": [{"measurement": "inhibition at 200 µM", "setting": "[1]", "value": 100, "unit": "%"}]}
{"compound": "CCCCC[C@@H](NCCCN1CCCCC1)[C@H](O)c1ccccc1", "note": "(racemic) [Compound 6, (1RS,2RS)-1-phenyl-2-(3-piperidinopropylamino)heptan-1-ol dihydrochloride]", "values": [{"measurement": "inhibition at 200 µM", "setting": "[1]", "value": 100, "unit": "%"}]}
{"compound": "C[C@H](NCCN(C)C)[C@H](O)c1ccccc1", "note": "(racemic) [Comparative compound 4, (1RS,2SR)-2-(2-dimethylaminoethylamino)-1-phenylpropan-1-ol dihydrochloride, reference compound]", "values": [{"measurement": "inhibition in vivo at 3 mg/kg", "setting": "[3]", "value": 1.1, "unit": "%"}]}
{"compound": "Cc1ccc([C@@H](O)[C@H](CC(C)C)NCCCN2CCCCC2)cc1", "note": "(racemic) [Compound 51, (1RS,2SR)-4-methyl-1-(4-methylphenyl)-2-(3-piperidinopropylamino)pentan-1-ol dihydrochloride]", "values": [{"measurement": "inhibition at 200 µM", "setting": "[1]", "value": 100, "unit": "%"}]}
{"compound": "CC(C)C[C@H](NCCCN(C)C)[C@H](O)c1ccccc1", "note": "(racemic) [Compound 27, (1RS,2SR)-2-(3-dimethylaminopropylamino)-4-methyl-1-phenylpentan-1-ol dihydrochloride]", "values": [{"measurement": "inhibition at 200 µM", "setting": "[1]", "value": 95, "unit": "%"}]}
{"compound": "Cc1ccc([C@@H](O)[C@@H](CC(C)C)NCCCN2CCCCC2)cc1", "note": "(relative stereo) [Compound 52, (1RS,2RS)-4-methyl-1-(4-methylphenyl)-2-(3-piperidinopropylamino)pentan-1-ol dihyrochloride]", "values": [{"measurement": "inhibition at 200 µM", "setting": "[1]", "value": 93, "unit": "%"}]}
{"compound": "C[C@H](NCCN1CCOCC1)[C@H](O)c1ccccc1", "note": "(racemic) [Comparative compound 3, (1RS,2SR)-2-(2-morpholinoethylamino)-1-phenylpropan-1-ol dihydrochloride, reference compound]", "values": [{"measurement": "inhibition in vivo at 3 mg/kg", "setting": "[3]", "value": 1, "unit": "%"}]}
{"compound": "CC(C)C[C@@H](NCCCN1CCCCC1)[C@H](O)c1ccc(Cl)cc1", "note": "(racemic) [Compound 58, (1RS,2RS)-1-(4-chlorophenyl)-4-methyl-2-(3-piperidinopropylamino)pentan-1-ol dihydrochloride]", "values": [{"measurement": "inhibition at 200 µM", "setting": "[1]", "value": 97, "unit": "%"}]}
{"compound": "CC(C)C[C@H](NCCCN1CCCCC1)[C@H](O)c1ccc(Cl)cc1", "note": "(racemic) [Compound 57, (1RS,2SR)-1-(4-chlorophenyl)-4-methyl-2-(3-piperidinopropylamino)pentan-1-ol dihydrochloride]", "values": [{"measurement": "inhibition at 200 µM", "setting": "[1]", "value": 99, "unit": "%"}]}
{"compound": "CC(C)C[C@@H](NCCCN1CCCCC1)[C@H](O)c1ccccc1", "note": "[Compound 20, (1R,2R)-4-methyl-1-phenyl-2-(3-piperidinopropylamino)pentan-1-ol dihydrochloride]", "values": [{"measurement": "inhibition at 200 µM", "setting": "[1]", "value": 98, "unit": "%"}]}
{"compound": "CCN(CCCN1CCCCC1)[C@@H](CCC(C)C)[C@H](O)c1ccccc1", "note": "(racemic) [Compound 65, (1RS,2SR)-2-[ethyl-(3-piperidinopropyl)amino]-5-methyl-1-phenylhexan-1-ol dihydrochloride]", "values": [{"measurement": "inhibition at 200 µM", "setting": "[1]", "value": 99, "unit": "%"}]}
{"compound": "CC(C)C[C@@H](NCCCN1CCCCC1)[C@@H](O)c1ccccc1", "note": "[Compound 18, (1S,2R)-4-methyl-1-phenyl-2-(3-piperidinopropylamino)pentan-1-ol dihydrochloride]", "values": [{"measurement": "inhibition at 200 µM", "setting": "[1]", "value": 97, "unit": "%"}]}
{"compound": "CC(C)C[C@H](NCCN1CCCCC1)[C@H](O)c1ccccc1", "note": "(racemic) [Compound 29, (1RS,2SR)-4-methyl-1-phenyl-2-(2-piperidinoethylamino)pentan-1-ol dihydrochloride]", "values": [{"measurement": "inhibition at 200 µM", "setting": "[1]", "value": 93, "unit": "%"}]}
{"compound": "CC(C)C[C@H](NCCN1CCCC1)[C@H](O)c1ccccc1", "note": "(racemic) [Compound 31, (1RS,2SR)-4-methyl-1-phenyl-2-(2-pyrrolidinoethylamino)pentan-1-ol dihydrochloride]", "values": [{"measurement": "inhibition at 200 µM", "setting": "[1]", "value": 91, "unit": "%"}]}
{"compound": "CC(C)C[C@H](NCCCN1CCCCC1)[C@H](O)c1ccc(F)cc1", "note": "(racemic) [Compound 55, (1RS,2SR)-1-(4-fluorophenyl)-4-methyl-2-(3-piperidinopropylamino)pentan-1-ol dihydrochloride]", "values": [{"measurement": "inhibition at 200 µM", "setting": "[1]", "value": 99, "unit": "%"}]}
{"compound": "Cc1ccc(C(=O)C(C)CN2CCCCC2)cc1", "note": "(stereo not drawn) [Comparative compound 5, tolperisone hydrochloride, reference compound]", "values": [{"measurement": "inhibition in vivo at 3 mg/kg", "setting": "[3]; 3 mg/kg through the femoral vein, 10 minutes after administration", "value": 4.8, "unit": "%"}]}
{"compound": "CC(C)CC[C@H](NCCCN1CCOCC1)[C@H](O)c1ccccc1", "note": "(racemic) [Compound 37, (1RS,2SR)-5-methyl-2-(3-morpholinopropylamino)-1-phenylhexan-1-ol dihydrochloride]", "values": [{"measurement": "inhibition at 200 µM", "setting": "[1]", "value": 99, "unit": "%"}]}
{"compound": "CO[C@H](c1ccccc1)[C@H](CCC(C)C)NCCCN1CCCCC1", "note": "(racemic) [Compound 59, (1RS,2SR)-5-methyl-1-phenyl-2-(3-piperidinopropylamino)hexan-1-ol methylether dihydrochloride]", "values": [{"measurement": "inhibition at 200 µM", "setting": "[1]", "value": 97, "unit": "%"}]}
{"compound": "Cc1ccccc1[C@@H](O)[C@H](CC(C)C)NCCCN1CCCCC1", "note": "(racemic) [Compound 47, (1RS,2SR)-4-methyl-1-(2-methylphenyl)-2-(3-piperidinopropylamino)pentan-1-ol dihydrochloride]", "values": [{"measurement": "inhibition at 200 µM", "setting": "[1]", "value": 100, "unit": "%"}]}
{"compound": "CC(C)CC[C@H](NCCCN(C)C)[C@H](O)c1ccccc1", "note": "(racemic) [Compound 39, (1RS,2SR)-2-(3-dimethylaminopropylamino)-5-methyl-1-phenylhexan-1-ol dihydrochloride]", "values": [{"measurement": "inhibition at 200 µM", "setting": "[1]", "value": 100, "unit": "%"}]}
{"compound": "C[C@H](NCCN1CCCC1)[C@H](O)c1ccccc1", "note": "(racemic) [Comparative compound 2, (1RS,2SR)-1-phenyl-2-(2-pyrrolidinoethylamino)propan-1-ol dihydrochloride, reference compound]", "values": [{"measurement": "inhibition in vivo at 3 mg/kg", "setting": "[3]", "value": 2.2, "unit": "%"}]}
